These are literature values, as cited in article PMC3889329 (Diabetes Therapy, 2013).

SMILES strings stand for the structures.

In the data set the test system is healthy subjects. Conditions: cited from earlier work.

As to `Cc1ccc([C@@H]2O[C@H](CO)[C@@H](O)[C@H](O)[C@H]2O)cc1Cc1ccc(-c2ccc(F)cc2)s1` [Canagliflozin], the “Maximal UGE” value (200–800 mg qd, healthy subjects) is 70 g/day. As to `OC[C@H]1O[C@@H](c2ccc(F)c(Cc3cc4ccccc4s3)c2)[C@H](O)[C@@H](O)[C@@H]1O` [Ipragliflozin], the “Maximum UGE” value (multiple doses of 5–600 mg, healthy volunteers) is listed as “approximately 59 g/day”.
